According to patent US20090258097A1, “EXTRACTS AND COMPOUNDS FROM "AGAPANTHUS AFRICANUS" AND THEIR USE AS BIOLOGICAL PLANT PROTECTING AGENTS” (AGRARFORUM AG, priority 2005, published 2009):

Assays:
Fusarium oxysporum = assay: In vitro mycelial growth inhibition (agar dilution); format: cell-based; settings: for concentration showing strong antifungal activity: purified compounds
Sporisorium cruentum = assay: Sorghum loose kernel smut field trial (seed treatment); format: in vivo; settings: extract 2.0 g/l, Thiram 0.25% (w/w)
Sporisorium sorghi = assay: Sorghum covered kernel smut field trial (seed treatment); format: in vivo; settings: extract 2.0 g/l, Thiram 0.25% (w/w)
[1] = pure compounds from the most active P-TLC root fraction, following acidification

Compound | % mycelial growth inhibition of F. oxysporum (Fusarium oxysporum; pure compound from the most active P-TLC aerial plant part fraction) [%] | % mycelial growth inhibition of F. oxysporum (Fusarium oxysporum; [1]) [%] | concentration showing strong antifungal activity (Fusarium oxysporum) | % mean smut incidence (Sporisorium cruentum) [b %] | Yield (ton ha^−1) (Sporisorium cruentum) [ab ton ha^−1] | % mean smut incidence (Sporisorium sorghi) [b %] | Yield (ton ha^−1) (Sporisorium sorghi) [ab ton ha^−1]
3-[{O-β-D-glucopyranosyl-(1″-3′)-α-L-rhamnosyl-(1″-2′)}-β-D-glucopyranosyloxy]agapanthegenin [Compound 1] | 100 | 100 | approximately 125 μg/ml | – | – | – | –
CC(=O)Oc1cc(OC(C)=O)c2c(c1)OC(c1ccc(OC(C)=O)c(OC(C)=O)c1)CC2=O (centres unmarked) [Compound 8, 5,7,3′4′-tetra-O-acetylflavanone] | – | 93 | about 625 μg/ml | – | – | – | –
CC(=O)Oc1ccc(/C=C/C(=O)c2ccc(OC(C)=O)cc2OC(C)=O)cc1 [Compound 9, trans-4,2′,4′-Tri-O-acetylchalcone] | – | 97 | about 625 μg/ml | – | – | – | –
CN(C)C(=S)SSC(=S)N(C)C [Thiram] | – | – | – | 0 | 2.1 | 0 | 2.6
